Test results reported in patent EP0062319A1, “3-Methyl-1-(2-(3-naphthyloxy)-ethyl)-2-pyrazolin-5-one for the treatment of the metastasis and growth of tumour cells” (BAYER AG, priority 1981, dated 1982).

How the values were obtained:
Type in all cases: in vivo, C57BL/6J Mäuse
[1] = test system: B-16a-amelanotischen Melanom-Zellen; assay: Metastasis of tail-vein injected B-16a melanoma cells (lung tumour colonies) in mice; details: 5 x 10^4 cells i.v., mean ± SEM, n = 6
Excerpt: (§1) Wie bereits weiter oben festgestellt wurde, ist die Metastase […], die durch eine Reihe komplizierter Vorgänge dargestellt wird. Gegenwärtig finden zwei "Modell"-Systeme für die Untersuchung der in vivo-Metastase verbreitete Anwendung. Das erste Modellsystem umfaßt die subkutane Injektion der Tumorzellen in das Tier. Die subkutane Injektion der Tumorzellen und anschließende Entwicklung eines Primärtumors, gefolgt von spontaner Metastase, wird als "volle" Metastase betrachtet. Ein anderes Modellsystem umfaßt die Injektion der Tumorzellen durch die Schwanzvene. In Anbetracht der Komplexität der Metastase gilt die Schwanzvenen-Injektion als künstliches und nur partielles Modellsystem, da es nur die Vorgänge während des letzteren Teils der Metastase wiedergibt. Das Schwanzvenen-Modellsystem gilt jedoch auch als außerordentlich günstig im Hinblick auf eine Standardisierung der Versuchsbedingungen [vgl."Methods in Cancer Research", Kapitel VII, Academic Press, Inc., 1978].
(§2) Als Kontrolltiere wurden (unbehandelte) C57B1/6J-Mäuse nach folgender Arbeitsweise auf volle Metastase untersucht. Zellsuspensionen der B-16 - und 3LL-Karzinom-Zellen, die wie oben unter A und B beschrieben erhalten worden waren, wurden subkutan in die rechte Achselhöhlenregion der männlichen C57BL/6J-Mäuse injiziert (0,66 mm- = 26 gauge -Nadel; 0,2 ml). Injiziert wurden verschiedene Mengen der Zellsuspensionen im Bereich von 1 x 10^5 bis 1 x 10^6 Zellen. Versuche zur partiellen Metastase wurden in der Weise durchgeführt, daß Tumorzellen über die Schwanzvene in die (unbehandelten) Kontroll-Mäuse injiziert wurden. Die Tiere wurden unter identischen Bedingungen der Temperatur, Lichteinwirkungsdauer, Ernährung etc. gehalten. Nach einem Beobachtungszeitraum von 17 bis 30 Tagen wurden die für die volle Metastase und für die partielle Metastase verwendeten Tiere getötet, und die Lungen, Leber, Nieren, Milz und Gehirn-Gewebe wurde entnommen.
(§3) Das entnommene Gewebe wurde in Bouin-Lösung fixiert.
(§4) Die Zahl der metastatischen Knötchen in jedem Organ wurde mit Hilfe eines Bausch-und-Lomb Stereo-Zoom-Mikroskops bestimmt. Die Untersuchung der Kontroll- Mäuse auf metastatische Knötchen ergab bei 100 % der Tiere positive Befunde in bezug auf metastatische Lungentumoren; die Inkubationszeit für die Erzeugung solcher Metastasen betrug für die 3LL-Tumorzellen 17 bis 21 Tage und für die B-16 a -Tumorzellen 23 bis 30 Tage. In Leber, Nieren, Milz oder Gehirn-Gewebe wurden keine sichtbaren Knötchen beobachtet.
3 mg 3-Methyl-1-[2-(2-naphthyloxy)-ethyl]-2-pyrazolin-5-on wurden in 0,6 ml absolutem Ethylalkohol suspendiert. Das suspendierte Pyrazolon wurde durch Einstellen des pH auf 9,5 mit NaOH gelöst. […]

[2] = test system: B-16a-amelanotischem Melanom; assay: Spontaneous (full) metastasis of subcutaneously injected B-16a melanoma (lung tumour colonies) in mice; details: for Lungen-Tumor-Kolonien B-16a-Zellen: 1,8 x 10^5 cells s.c., killed day 25, mean ± SEM; for Lungen-Tumor-Kolonien B-16a-Zellen (fraction in brackets): bracketed fraction
Excerpt: as §1, §2, §3, §4
Die Wirkung der Verabreichung der Pyrazolon-Verbindung über einen längeren Zeitraum hinweg auf die Zahl der metastatischen Lungen-Kolonien des B-16 a und des Lewis-Lungen-Karzinoms wurde wie nachstehend beschrieben bestimmt.
3 mg 3-Methyl-1-[2-(2-naphthyloxy)-ethyl]-2-pyrazolin-5-on wurden in 0,6 ml Ethylalkohol gelöst, und die Lösung wurde mit konzentrierter Natronlauge auf pH 9,5 eingestellt.
Syngeneischen C57BL/6J Wirts-Mäusen wurde eine Suspension von 1,8 x 10^5 B-16 a -Zellen subkutan injiziert, die wie vorstehend beschrieben hergestellt wurde. Einer anderen Reihe syngeneischer C57BL/6J Wirts-Mäuse wurde eine Suspension von 1 x 10^5 Lewis-Lungen-Karzinom-Zellen, erhalten wie vorstehend beschrieben, subkutan injiziert. […] Die Kontroll-Mäuse und die behandelten Mäuse wurden unter identischen Bedingungen der Temperatur, Lichteinwirkungsdauer, Ernährung etc. gehalten. Die Mäuse, die die B-16 -Tumorzellen injiziert erhalten hatten wurden 25 Tage nach der Injektion der Tumorzellen getötet; die Mäuse, denen die Lewis-Lungen-Karzinom-Zellen injiziert worden waren, wurden 21 Tage nach der Injektion der Tumorzellen getötet.

Lewis-Lungen-Karzinom = assay: Spontaneous (full) metastasis of subcutaneously injected Lewis lung carcinoma (lung tumour colonies) in mice; details: 0.08 mg daily s.c.
Excerpt: as §1
Als Kontrolltiere wurden (unbehandelte) C57B1/6J-Mäuse nach folgender Arbeitsweise auf volle Metastase untersucht. Zellsuspensionen der B-16 - und 3LL-Karzinom-Zellen, die wie oben unter A und B beschrieben erhalten worden waren, wurden subkutan in die rechte Achselhöhlenregion der männlichen C57BL/6J-Mäuse injiziert (0,66 mm- = 26 gauge -Nadel; 0,2 ml). […]

## CC1=NN(CCOc2ccc3ccccc3c2)C(=O)C1 [3-Methyl-1-[2-(2-naphthyloxy)-ethyl]-2-pyrazolin-5-on]
[1]; 0.02 mg/mouse s.c. daily for 3 days before tumour cell injection, lungs 14 days later
  Lungen-Tumor-Kolonien: 19.3 ± 7.5
[1]; 0.08 mg, second line of the table (presumably injected 1 h before the tumour cells)
  Lungen-Tumor-Kolonien: 65 ± 36
[1]; 0.08 mg/mouse s.c. daily for 3 days before tumour cell injection, lungs 14 days later
  Lungen-Tumor-Kolonien: 2.7 ± 1.3
[2]; 0.01 mg daily s.c., colonies on bilateral lung surface
  Lungen-Tumor-Kolonien B-16a-Zellen: 1.7 ± 0.7
[2]; 0.01 mg daily s.c.
  Lungen-Tumor-Kolonien B-16a-Zellen (fraction in brackets): 7/12
[2]; 0.02 mg daily s.c.
  Lungen-Tumor-Kolonien B-16a-Zellen: 2.5 ± 0.9
  Lungen-Tumor-Kolonien B-16a-Zellen (fraction in brackets): 7/12
[2]; 0.04 mg daily s.c.
  Lungen-Tumor-Kolonien B-16a-Zellen: 3.1 ± 0.8
  Lungen-Tumor-Kolonien B-16a-Zellen (fraction in brackets): 8/12
[2]; 0.08 mg daily s.c.
  Lungen-Tumor-Kolonien B-16a-Zellen: 1.4 ± 0.8
  Lungen-Tumor-Kolonien B-16a-Zellen (fraction in brackets): 5/12
Lewis-Lungen-Karzinom; 1 x 10^5 cells s.c., killed day 21, mean ± SEM
  Lungen-Tumor-Kolonien Lewis-Lungen-Zellen: 0.8 ± 0.5
Lewis-Lungen-Karzinom; bracketed fraction
  Lungen-Tumor-Kolonien Lewis-Lungen-Zellen (fraction in brackets): 2/12
